Assay results published in PubChem BioAssay (NCI).
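Compound exposure: 48 hours, 5 concentrations, 96-well plates. GI50 marks 50% less growth. At the TGI there is no net growth.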

Columns and labels:
Test in all cases: growth of human tumour cells (NCI), 48 h
HL-60(TB) leukemia = tested on: HL-60(TB) leukemia
LOX IMVI melanoma = tested on: LOX IMVI melanoma
A549 NSCLC = tested on: A549 NSCLC
BT-549 breast = tested on: BT-549 breast
HCT-15 colon = tested on: HCT-15 colon
NCI-H460 lung = tested on: NCI-H460 lung
T-47D breast = tested on: T-47D breast
ACHN renal = tested on: ACHN renal
NCI-H23 lung = tested on: NCI-H23 lung
SK-MEL-28 melanoma = tested on: SK-MEL-28 melanoma
OVCAR-3 ovarian = tested on: OVCAR-3 ovarian
UACC-62 melanoma = tested on: UACC-62 melanoma
NCI-H522 lung = tested on: NCI-H522 lung
786-0 renal = tested on: 786-0 renal
IGROV1 ovarian = tested on: IGROV1 ovarian
M14 melanoma = tested on: M14 melanoma
MALME-3M melanoma = tested on: MALME-3M melanoma
HCC-2998 colon = tested on: HCC-2998 colon
NCI/ADR-RES ovarian = tested on: NCI/ADR-RES ovarian
SW-620 colon = tested on: SW-620 colon
MDA-MB-435 = tested on: MDA-MB-435
UO-31 renal = tested on: UO-31 renal
HT29 colon = tested on: HT29 colon
CAKI-1 renal = tested on: CAKI-1 renal
SNB-75 CNS = tested on: SNB-75 CNS
KM12 colon = tested on: KM12 colon
NCI-H226 lung = tested on: NCI-H226 lung
SK-MEL-2 melanoma = tested on: SK-MEL-2 melanoma
HOP-92 NSCLC = tested on: HOP-92 NSCLC
OVCAR-8 ovarian = tested on: OVCAR-8 ovarian
DU-145 prostate = tested on: DU-145 prostate
SK-MEL-5 melanoma = tested on: SK-MEL-5 melanoma
SK-OV-3 ovarian = tested on: SK-OV-3 ovarian
SN12C renal = tested on: SN12C renal
MDA-MB-231 breast = tested on: MDA-MB-231 breast
HOP-62 NSCLC = tested on: HOP-62 NSCLC
RPMI-8226 leukemia = tested on: RPMI-8226 leukemia
COLO 205 colon = tested on: COLO 205 colon
SF-539 CNS = tested on: SF-539 CNS
SF-268 CNS = tested on: SF-268 CNS
A498 renal = tested on: A498 renal
U251 CNS = tested on: U251 CNS
OVCAR-4 ovarian = tested on: OVCAR-4 ovarian
MCF7 breast = tested on: MCF7 breast
PC-3 prostate = tested on: PC-3 prostate
MOLT-4 leukemia = tested on: MOLT-4 leukemia
OVCAR-5 ovarian = tested on: OVCAR-5 ovarian
HS 578T breast = tested on: HS 578T breast
SF-295 CNS = tested on: SF-295 CNS
RXF 393 renal = tested on: RXF 393 renal
EKVX NSCLC = tested on: EKVX NSCLC
CCRF-CEM leukemia = tested on: CCRF-CEM leukemia
UACC-257 melanoma = tested on: UACC-257 melanoma
HCT-116 colon = tested on: HCT-116 colon
K-562 leukemia = tested on: K-562 leukemia
SR leukemia = tested on: SR leukemia

With `CNCCNc1nc2ccccc2c2c(=O)c3cc(F)ccc3sc12` the GI50 (HL-60(TB) leukemia) was 1.89 µM, the TGI (HL-60(TB) leukemia) was 3.66 µM and the GI50 (LOX IMVI melanoma) was 1.57 µM. It also gave a TGI (LOX IMVI melanoma) of 2.98 µM, a GI50 (A549 NSCLC) of 1.65 µM and a TGI (A549 NSCLC) of 3.29 µM. For the same molecule, the GI50 (BT-549 breast) was 3.59 µM, the TGI (BT-549 breast) was 14.9 µM and the GI50 (HCT-15 colon) was 1.65 µM. For the same molecule, the TGI (HCT-15 colon) was 3.26 µM, the GI50 (NCI-H460 lung) was 1.78 µM and the TGI (NCI-H460 lung) was 3.32 µM. It also gave a GI50 (T-47D breast) of 1.8 µM, a TGI (T-47D breast) of 4.12 µM and a GI50 (ACHN renal) of 1.56 µM. The TGI (ACHN renal) was 2.91 µM, the GI50 (NCI-H23 lung) was 1.8 µM and the TGI (NCI-H23 lung) was 3.65 µM. It also gave a GI50 (SK-MEL-28 melanoma) of 1.85 µM, a TGI (SK-MEL-28 melanoma) of 3.38 µM and a GI50 (OVCAR-3 ovarian) of 1.7 µM. The TGI (OVCAR-3 ovarian) was 3.25 µM, the GI50 (UACC-62 melanoma) was 1.73 µM and the TGI (UACC-62 melanoma) was 3.18 µM. The GI50 (NCI-H522 lung) was 1.66 µM, the TGI (NCI-H522 lung) was 3.42 µM and the GI50 (786-0 renal) was 1.59 µM. For the same molecule, the TGI (786-0 renal) was 3.09 µM, the GI50 (IGROV1 ovarian) was 1.75 µM and the TGI (IGROV1 ovarian) was 3.34 µM. For the same molecule, the GI50 (M14 melanoma) was 1.64 µM, the TGI (M14 melanoma) was 3.07 µM and the GI50 (MALME-3M melanoma) was 1.67 µM. For the same molecule, the TGI (MALME-3M melanoma) was 3.1 µM, the GI50 (HCC-2998 colon) was 1.7 µM and the TGI (HCC-2998 colon) was 3.45 µM. For the same molecule, the GI50 (NCI/ADR-RES ovarian) was 1.82 µM, the TGI (NCI/ADR-RES ovarian) was 3.83 µM and the GI50 (SW-620 colon) was 1.66 µM. The TGI (SW-620 colon) was 3.24 µM, the GI50 (MDA-MB-435) was 1.71 µM and the TGI (MDA-MB-435) was 3.22 µM. The GI50 (UO-31 renal) was 1.39 µM, the TGI (UO-31 renal) was 2.81 µM and the GI50 (HT29 colon) was 1.59 µM. The TGI (HT29 colon) was 3.2 µM, the GI50 (CAKI-1 renal) was 1.38 µM and the TGI (CAKI-1 renal) was 2.77 µM. The GI50 (SNB-75 CNS) was 1.58 µM, the TGI (SNB-75 CNS) was 5.6 µM and the GI50 (KM12 colon) was 1.74 µM. For the same molecule, the TGI (KM12 colon) was 3.25 µM, the GI50 (NCI-H226 lung) was 1.8 µM and the TGI (NCI-H226 lung) was 3.76 µM. For the same molecule, the GI50 (SK-MEL-2 melanoma) was 1.76 µM, the TGI (SK-MEL-2 melanoma) was 3.45 µM and the GI50 (HOP-92 NSCLC) was 1.73 µM. For the same molecule, the TGI (HOP-92 NSCLC) was 7.42 µM, the GI50 (OVCAR-8 ovarian) was 1.85 µM and the TGI (OVCAR-8 ovarian) was 3.84 µM. It also gave a GI50 (DU-145 prostate) of 1.71 µM, a TGI (DU-145 prostate) of 3.15 µM and a GI50 (SK-MEL-5 melanoma) of 1.82 µM. It also gave a TGI (SK-MEL-5 melanoma) of 3.34 µM, a GI50 (SK-OV-3 ovarian) of 2.13 µM and a TGI (SK-OV-3 ovarian) of 7.58 µM. It also gave a GI50 (SN12C renal) of 1.61 µM, a TGI (SN12C renal) of 3.29 µM and a GI50 (MDA-MB-231 breast) of 1.61 µM. For the same molecule, the TGI (MDA-MB-231 breast) was 3.18 µM, the GI50 (HOP-62 NSCLC) was 1.48 µM and the TGI (HOP-62 NSCLC) was 3.21 µM. It also gave a GI50 (RPMI-8226 leukemia) of 1.91 µM, a TGI (RPMI-8226 leukemia) of 4.03 µM and a GI50 (COLO 205 colon) of 1.67 µM. For the same molecule, the TGI (COLO 205 colon) was 3.36 µM, the GI50 (SF-539 CNS) was 1.71 µM and the TGI (SF-539 CNS) was 3.13 µM. It also gave a GI50 (SF-268 CNS) of 1.69 µM, a TGI (SF-268 CNS) of 4.17 µM and a GI50 (A498 renal) of 2.05 µM. It also gave a TGI (A498 renal) of 6.96 µM, a GI50 (U251 CNS) of 1.63 µM and a TGI (U251 CNS) of 3.18 µM. For the same molecule, the GI50 (OVCAR-4 ovarian) was 1.8 µM, the TGI (OVCAR-4 ovarian) was 3.66 µM and the GI50 (MCF7 breast) was 1.67 µM. For the same molecule, the TGI (MCF7 breast) was 3.31 µM, the GI50 (PC-3 prostate) was 1.52 µM and the TGI (PC-3 prostate) was 3.3 µM. It also gave a GI50 (MOLT-4 leukemia) of 1.72 µM, a TGI (MOLT-4 leukemia) of 3.5 µM and a GI50 (OVCAR-5 ovarian) of 1.65 µM. For the same molecule, the TGI (OVCAR-5 ovarian) was 3.21 µM, the GI50 (HS 578T breast) was 2 µM and the TGI (HS 578T breast) was 4.79 µM. The GI50 (SF-295 CNS) was 1.82 µM, the TGI (SF-295 CNS) was 3.4 µM and the GI50 (RXF 393 renal) was 1.6 µM. It also gave a TGI (RXF 393 renal) of 3.1 µM, a GI50 (EKVX NSCLC) of 1.74 µM and a TGI (EKVX NSCLC) of 3.57 µM. It also gave a GI50 (CCRF-CEM leukemia) of 1.68 µM, a TGI (CCRF-CEM leukemia) of 3.36 µM and a GI50 (UACC-257 melanoma) of 1.73 µM. It also gave a TGI (UACC-257 melanoma) of 3.25 µM, a GI50 (HCT-116 colon) of 1.49 µM and a TGI (HCT-116 colon) of 2.81 µM. For the same molecule, the GI50 (K-562 leukemia) was 1.64 µM, the TGI (K-562 leukemia) was 4.35 µM and the GI50 (SR leukemia) was 1.83 µM. It also gave a TGI (SR leukemia) of 4.31 µM.
